Consider eight molecules from US11083677B2, “Cosmetic base including amide alcohol, and cosmetic” (Kokyu Alcohol Kogyo Co., Ltd., priority 2016, dated 2021).

Each structure is given as a SMILES string. Entries after “also recorded” stand apart in the source; their conditions may differ.

Data set [1] is described as follows: Evaluation of solubility and gelling ability (critical gelation concentration, sample tube inversion method). Type of data set: physicochemical. As to the method: The amide alcohol and each liquid were heated and mixed, and the critical gelation concentration was measured by sample tube inversion method.
Sample tube used: used tube: Maruemu screw tube No. 7 (trunk diameter 35 mm, total length 78 mm)

Data set [2] is described as follows: Solubility of glycerin with various alcohols.

`O=C(CCCO)NC1CCCCC1` [4HN-CHBA, 4-hydroxy-N-cyclohexyl, butyramide]: the “solubility and gelling ability” value in data set [1] (Ethanol) was “S”; in data set [1] (Octyldodecyl myristate) it was “I”; in data set [1] (Squalane), “I”; in data set [1] (Triethylhexanoin), “I”; in data set [1] (Water) it was “S”. In addition, the “behaviour with glycerin (in words)” value in data set [1] (Glycerin) is “thickened”; in data set [1] (Glycerin, listed as 4HN CHBA) it was “thickening/gelation”. In addition, the values for the concentration for thickening entry in data set [1] (Glycerin) and in data set [1] (Octyldodecanol) were “(≥12 wt %)” and “(≥18 wt %)”, respectively. Also, the “behaviour with water (in words)” value in data set [1] (Water) is “solubility in water”.
For `CCCCC(CC)CNC(=O)CCCO` (centres unmarked) [4HN-EHBA, 4-hydroxy-N-2-ethylhexyl, butyramide], the “solubility and gelling ability” value in data set [1] (Ethanol) is listed as “S”; in data set [1] (Glycerin), “S”; in data set [1] (Octyldodecanol) it was “S”; in data set [1] (Octyldodecyl myristate), “S”; in data set [1] (Squalane), “I”; in data set [1] (Triethylhexanoin) it was “I”. Besides, in data set [1] (Water), the “solubility and gelling ability” value is recorded as “I”. The “solubility with glycerin (in words)” value in data set [2] is listed as “can be dissolved”.
As for `CCCCCCCCCCCCNC(=O)CCCO` [4HN-LBA, 4-hydroxy-N-lauryl, butyramide], the “solubility and gelling ability” value in data set [1] (Ethanol) is on record as “S”. In addition, in data set [1] (Glycerin), the “behaviour with glycerin (in words)” value was “gelled”. In data set [1] (Water), the “behaviour with water (in words)” value was “emulsification-gelled”. The “behaviour with ester oil (in words)” value in data set [1] was “gelled”.
`CCCCCCCCCCCCCCNC(=O)CCCO` [4HN-MBA, 4-hydroxy-N-myristyl, butyramide]: the “solubility and gelling ability” value in data set [1] (Ethanol) was “S”; in data set [1] (Glycerin), “I”.
For the molecule `CCCCCCCCNC(=O)CCCO` [4HN-OBA, 4-hydroxy-N-octyl, butyramide], the “solubility and gelling ability” value in data set [1] (Ethanol) is “S”; in data set [1] (Octyldodecanol), “S”; in data set [1] (Squalane), “I”; in data set [1] (Water), “S”. For the same molecule, the “behaviour with glycerin (in words)” value in data set [1] (Glycerin) is given as “gelled; also recorded: thickening/gelation”. Besides, in data set [1] (Water), the “behaviour with water (in words)” value was “solubility in water”. In data set [1], the “behaviour with ester oil (in words)” value is listed as “gelled”.
With `CCCCCCCC/C=C\CCCCCCCCNC(=O)CCCO` [4HN-OLBA, 4-hydroxy-N-oleyl, butyramide], the “solubility and gelling ability” value is on record as “S” in data set [1] (Ethanol), “I” in data set [1] (Glycerin), “S” in data set [1] (Octyldodecanol) and “I” in data set [1] (Water).
As for `CCCCCCCCCCCCCCCCCCNC(=O)CCCO` [4HN-STBA, 4-hydroxy-N-stearyl, butyramide], the “solubility and gelling ability” value in data set [1] (Ethanol), in data set [1] (Glycerin) and in data set [1] (Water) was “I” throughout.
In the case of `CCCCCCCCCCCCNC(=O)CCCCCO` [6HN-LHA, 6-hydroxy-N-lauryl, hexylamide], the “solubility and gelling ability” value in data set [1] (Ethanol) was “S”; in data set [1] (Glycerin) it was “I”; in data set [1] (Water), “I”.
